Earlier results in US12678439B2 (DOUGLAS PHARMACEUTICALS LIMITED, priority 2018, dated 2026).

Which solubility in water does the source give for Cc1cccc(C)c1OCC(=O)N[C@@H](Cc1ccccc1)[C@@H](O)C[C@H](Cc1ccccc1)NC(=O)[C@H](C(C)C)N1CCCNC1=O (relative stereo) [Lopinavir, [1S-[1R*(R*), 3R*, 4R*]]—N-[4-[(2,6-dimethylphenoxyl0acetyl]amino]-3-hydroxy-5-phenyl-1-(phenylmethyl)pentyl]tetrahydro-alpha-(1-methylethyl)-2-oxo-1(2H)-pyrimidineacetamide] here?
The solubility in water was “virtually insoluble”.
